Experimental data published in patent publication US6379670B1, “Methods for treatment of multiple sclerosis using peptide analogs of human myelin basic protein” (Neurocrine Biosciences, Inc., priority 1994, dated 2002).
Non-standard residues stand in square brackets, D forms with d. No end group written: not given here.

Legend:
[1] = tested on: Dr2b restricted human T cell clones reactive to MBP; experiment: Human T cell proliferation, Dr2b restricted clones; format: cell-based; settings: Dr2b restricted clone 5F6, 50 μM, FIG. 19
Procedure: (§1) Human T cells reactive to MBP (83-99) may alternatively be used to measure the ability of the peptide analog to inhibit proliferation of T cells induced by native MBP (83-99) peptide. MBP-specific T cells may be obtained as previously described by Martin et al., J. Immunol. 148:1359-1366, 1992. Briefly, T cell lines are established by culture of human T cells with irradiated, DR-matched peripheral blood cells in MEM supplemented with 2 mM L-glutamine, 50 μg/ml gentamicin, penicillin and streptomycin, 100 U/ml rIL-2, and 10% human AB negative serum. Proliferation of these T cell lines is stimulated by culturing a clone with varying concentration (1.1-30 μM) of native […] peptide, 50 μM of the peptide analog or SWM peptide, in the presence of irradiated, DR matched peripheral blood cells, following incubation for approximately 60 hours, the cells are pulsed with ^3H-thymidine for 12 hours and harvested. The amount of incorporated ^3H-thymidine is measured.
The ability of the peptide analogs NBI-5719, 5748, 5765, 5788 and 5789 (SEQ ID NOs: 4-8 respectively) to affect human T cell proliferation was assessed. A constant amount of peptide analog or the control peptide SWM (50 μM) was cultured with varying concentrations of native MBP(83-99) peptide (1.1-30 μM) in the presence of irradiated, DR matched peripheral blood cells and T cell clones derived from various MS patients. Human T cells (1×10^6) were cultured with DR matched, irradiated peripheral blood cells (PBL, 5×10^6) in medium containing IMDM supplemented with 3 μM MBP83-99, 2 mM L-glutamine, 50 μg/ml gentamicin penicillin/streptomycin, 100 U/ml r1L-2 and 10% human AB-negative serum. Cells were cultured for approximately 60 hours, pulsed with tritiated thymidine for 12 hours, and harvested. The amount of tritiated thymidine incorporated was measured, and the data represented as the mean plus or minus the standard error of the mean of replicate samples.
The ability of the peptide analog to inhibit the proliferative response of MBP-reactive T cells isolated from Dr2b (DrB1* 1501) individuals was determined. A constant amount of NBI-5788 (50 μM) was cultured with varying concentrations of native peptide (1.1-30 μM) in the presence of irradiated, DR matched peripheral blood cells and T cell clones derived from various MS patients.

[2] = tested on: Dr4 Dw4 restricted human T cell clone MS-1; experiment: Human T cell proliferation, Dr4 Dw4 restricted clone MS-1; format: cell-based; settings: FIG. 20
Procedure: as §1
The ability of the peptide analogs NBI-5719, 5748, 5765, 5788 and 5789 (SEQ ID NOs: 4-8 respectively) to affect human T cell proliferation was assessed. […] The amount of tritiated thymidine incorporated was measured, and the data represented as the mean plus or minus the standard error of the mean of replicate samples.

[3] = tested on: EAE in Lewis rats; experiment: Treatment of MBP(83-99)-induced EAE in Lewis rats with peptide analogs (subcutaneous); format: in vivo, Lewis rat; settings: 13.2 mg/kg subcutaneously on day 9, FIGS. 10 and 11
Procedure: In this system, experimental allergic encephalomyelitis (EAE) was induced in twelve female Lewis rats by injection of MBP(83-99) peptide in complete Freund's adjuvant (CFA) at the base of the tail. Nine days later, rats were divided into two groups of six animals and subcutaneously injected with 13.2 mg/kg of either peptide analog or a control peptide, sperm whale myoglobin (SWM) (110-121). Animals were monitored daily for disease symptoms and scored in a blinded fashion on a nonlinear ascending scale of 0-4 with increments denoting increasing paralysis. Each individual score was averaged with group cohorts to obtain the mean clinical score.

[4] = tested on: Dr2b-restricted T cell clone 5F6; experiment: Cytokine production (TNF-α, IFN-γ) by T cell clone 5F6, EIA; format: cell-based, human; settings: even at concentrations of 50 μM (data not shown)
Procedure: As discussed in detail below, the production of cytokines may also be assessed. In particular, TNF-α and IFN-γ production are especially interesting. These pro-inflammatory cytokines are thought to play a role in the pathogenesis of the disease. Briefly, T cell clone is incubated in the presence of stimulating MBP peptide and peptide analog or control peptide (SWM) or medium only. After a 24 hour incubation, the levels of TNF-α and IFN-γ in the supernatant are determined using commercially available EIA kits (Endogen, Cambridge, Mass.).
The ability of the peptide analog ligand to influence cytokine production was next measured. The Dr2b-restricted T cell clone 5F6 was incubated in the presence of 3 μM MBP peptide with either 10 μM of NBI-5788 (SEQ ID NO:7) or SWM or medium only. As a control, cells were cultured in the presence of medium alone. After 24 hours, supernatants were removed and the levels of tumor necrosis factor alpha (TNF-α) and interferon-y (IFN-γ) determined using commercially available EIA kits.

[5] = tested on: EAE in SJL/J mice; experiment: Inhibition of chronic relapsing EAE in SJL/J mice; format: in vivo, mouse; settings: 20 mg/kg intraperitoneally weekly for 4 weeks
Procedure: The SJL/J (H-2^5) mouse develops a chronic relapsing form of EAE in response to immunization with MBP(83-99) peptide in the presence of pertussis vaccine. The ability of the peptide analogs NBI-5719 (SEQ ID NO:4) and NBI-5765 (SEQ ID NO:6) to inhibit the disease was evaluated (see FIG. 12).
Groups of 10 animals were injected intraperitoneally weekly for 4 weeks with 20 mg/kg of either a control peptide or the peptide analog. The animals were then monitored for disease over the next 2-3 months. […] Beginning around day 70, a relapse occurred reaching a mean clinical score of about 1. […] This is particularly striking since the animals had not been exposed to the APL for approximately one month.

[6] = tested on: rat MHC class II I-A or I-E on splenic adherent cells; experiment: MHC binding assay (competition with biotin-labeled MBP peptide, flow cytometry); parameters: species or system Lewis rat; settings: at 100 μM
Procedure: Binding of peptides to MHC molecules may be assayed on whole cells. Briefly, Lewis rat spleen cells are cultured for 3 hours to allow adherent cells to stick to polystyrene petri dishes. Non-adherent cells are removed. Adherent cells, which contain cells expressing MHC class II molecules, are collected by scraping the dishes. The binding of peptide analogs to cells is measured by a fluorescence assay. In this assay, splenic adherent cells are mixed with different concentrations of peptide analogs and incubated for 1 hour at 37° in a CO2 incubator. Following incubation, biotinlabeled MBP (87-99) is added to the culture wells. The cells are incubated for another hour and then washed three times in medium. […] Fluorescence intensity is calculated by subtracting the fluorescence value obtained from cells stained with phycoerythrin-streptavidin alone (control staining) from the fluorescence value obtained from biotin-labeled MBP native peptide plus phycoerythrin-streptavidin (experimental staining). […] Percent inhibition is calculated for each analog and expressed as IC50 values.
The ability of MBP peptides and peptide analogs to bind MHC was measured. […] The binding of MBP (87-99) analogs was measured using a fluorescence assay. […] Percent inhibition was calculated for each analog and expressed as IC50 values.

[7] = tested on: MS patients; settings: human, in vivo; cited from earlier work

## NBI-5765: peptide analog of MBP (83-99), SEQ ID NO:6, sequence in FIG. 8 ([dA]NPVVHAFANIVTPRTP)
[1]
  inhibition of MBP-dependent proliferation of clone 5F6: inhibited the MBP-dependent proliferation in a concentration dependent fashion
[2]
  inhibition of MBP-dependent proliferation of clone MS-1: inhibited the MBP-dependent proliferation in a concentration dependent fashion
[3]
  effect on EAE disease severity versus control peptide: significantly reduced the magnitude of the disease
[4]
  stimulation of cytokine production over background by the analog itself: None
[5]; FIG. 12
  effect on first phase of EAE: reduced the level of the disease in the first phase
[5]; relapse around day 70
  effect on relapse of EAE: reduced the severity of the relapse

## a83, A89, A91: analog with residue 83 altered to D-alanine, residue 89 to alanine, and residue 91 to alanine
[6]
  inhibition of binding of biotin-labeled MBP peptide to MHC: 25%

B1: IFN-γ: cytokine administered in a pilot study in MS patients (protein, UniProt P01579 24-161, looked up)
Interferon gamma: QDPYVKEAENLKKYFNAGHSDVADNGTLFLGILKNWKEESDRKIMQSQIVSFYFKLFKNFKDDQSIQKSVETIKEDMNVKFFNSNKKKRDDFEKLTNYSVTDLNVQRKAIHELIQVMAELSPAAKTGKRKRSQMLFRG
[7]
  patients with a clinical exacerbation within one month after initiation of treatment: 7 of 18
